Earlier results as cited in patent EP0788741B1 (priority 1996, dated 1997).

Tested on: Australorbis Glabratus
Settings: Public Health Report, Vol. 82, No. 9; cited from earlier work

| SMILES | concentration effective to kill Puerto Rican snails [ppm] |
| --- | --- |
| CCCCCCCCCCCCCN(C)C.CCCCCCCCCCCCCN(C)C.O=C(O)C1C2CCC(O2)C1C(=O)O [di (N,N-dimethyltridecylamine) salt of Endothall] | 5 |
| CCCCCCCCCCCCCN(C)C.O=C(O)C1C2CCC(O2)C1C(=O)O [mono (N,N-dimethyltridecylamine) salt of Endothall] | 10 |
